US6548540B2, “Method of treating cancer using dithiocarbamate derivatives” (Charlotte-Mecklenburg Hospital Authority, priority 1998, dated 2003)

Columns and labels:
Type in all cases: cell-based, human
NF-κB = assay: EMSA of treated cells, NF-κB DNA binding; conditions: disulfiram plus copper; 12 hours; data not shown
Method: Nuclear protein was isolated and DNA binding reactions were performed as previously described in detail (See, […], et al., “Dehydroepiandrosterone and analogs inhibit DNA binding of AP-1 and airway smooth muscle proliferation,” J. Pharmacol. Exper. Ther. 285:[…] (1998); T. Kennedy, et al., “Copper-dependent inflammation and nuclear factor-κB activation by particulate air pollution,” Am. J. Respir. Cell Mol. Biol. 19:366-378 (1998)). Monolayers were washed twice in cold DPBS and equilibrated 10 minutes on ice with 0.7 ml cold cytoplasmic extraction buffer, CEB (10 mM Tris, pH 7.9, 60 mM KCl, 1 mM EDTA, 1 mM DTT) with protease inhibitors, PI (1 mM Pefabloc, 50 μg/ml antipain, 1 μg/ml leupeptin, 1 μg/ml pepstatin, 40 μg/ml bestatin, 3 μg/ml E-64 and 100 μg/ml chymostatin). The detergent Nonidet P-40 (NP-40) was added to a final concentration of 0.1% and cells were dislodged with a cell scraper. Nuclei were pelleted by centrifugation and washed with CEB/PI. […] Competition experiments were performed with 10×unlabeled wild-type oligonucleotide sequences for CRE or […] and 3'-[NT]5'), added before labeled probe. Supershift experiments were performed by incubating the binding reaction with 1 μg of supershifting antibody prior to electrophoresis. […] Gels were dried and analyzed by autoradiography at -80° C. using an image intensifier screen. […]

M1619 cells = assay: Intracellular reactive oxygen species, dichlorofluorescin probe
Method: Potential redox effects of disulfiram were studied in three sets of experiments. The importance of cellular glutathione (GSH) in mediating or modulating thiocarbamate toxicity was studied by measuring levels of intracellular GSH after treatment with disulfiram. […] Also, to assess whether a nonspecific antioxidant effect of disulfiram or PDTC might account for cellular growth inhibition, we studied the effect of the potent lipophilic antioxidant probucol (1.0 to 1,000 μM) on proliferation of malignant cell lines. […] A. Royall, et al., “Evaluation of 2′,7′-dichlorofluorescin and dihydrorhodamine 123 as fluorescent probes for intracellular H2O2 in cultured endothelial cells,” Archiv. Biochem. Biophys. 302:348-355 (1993)). […] Cells were plated in 24 well plastic plates at 50,000 cells per well and grown to confluence. Media was aspirated from wells and replaced with 100 μl medium containing 10 μM DCF-DA, and plates were incubated at 37° C. for 30 minutes. The DCF-DA containing media was aspirated, cells were washed twice with media alone and 100 μl fresh media was added to wells. […] The relative concentration of dichlorofluroescein was measured immediately by monitoring fluorescence at 37° C. using an excitation wavelength of 485 nm and emission wavelength of 535 nm.

AP-1 = assay: EMSA of treated cells, AP-1 DNA binding; conditions: disulfiram plus copper; 24 hours; data not shown
Method: Nuclear protein was isolated and DNA binding reactions were performed as previously described in detail (See, […], et al., “Dehydroepiandrosterone and analogs inhibit DNA binding of AP-1 and airway smooth muscle proliferation,” J. Pharmacol. Exper. Ther. 285:[…] (1998); T. Kennedy, et al., “Copper-dependent inflammation and nuclear factor-κB activation by particulate air pollution,” Am. J. Respir. Cell Mol. Biol. 19:366-378 (1998)). Monolayers were washed twice in cold DPBS and equilibrated 10 minutes on ice with 0.7 ml cold cytoplasmic extraction buffer, CEB (10 mM Tris, pH 7.9, 60 mM KCl, 1 mM EDTA, 1 mM DTT) with protease inhibitors, PI (1 mM Pefabloc, 50 μg/ml antipain, 1 μg/ml leupeptin, 1 μg/ml pepstatin, 40 μg/ml bestatin, 3 μg/ml E-64 and 100 μg/ml chymostatin). The detergent Nonidet P-40 (NP-40) was added to a final concentration of 0.1% and cells were dislodged with a cell scraper. Nuclei were pelleted by centrifugation and washed with CEB/PI. […]

p21WAF1/CIP1 = assay: Immunoblot for p21WAF1/CIP1; conditions: cell lines studied; data not shown
Method: Cells were lysed and proteins were isolated and quantitated by immunoassay as previously detailed using 2 μg/ml of primary rabbit polyclonal antibodies against human bcl-2, p53, p21^WAF1/CiP1, cyclin A and cyclin B1, and peroxidase-labeled donkey polyclonal anti-rabbit IgG. Cells were placed on ice, washed twice with cold DPBS, scraped into 0.5 ml boiling buffer (10% [vol/vol] glycerol and 2% [wt/vol] sodium dodecyl sulfate [SDS] in 83 mM Tris, pH 6.8) and sheared by four passages through a pipette. Aliquots were removed for protein determination, using the BCA protein assay (Pierce). After 10% β-mercaptoethanol and 0.05% bromophenol blue were added, lysates were boiled for 5 min and stored at −80° C. until immunoblotting was performed. Proteins in defrosted samples were separated by SDS-polyacrylamide gel electrophoresis on 12% polyacrylamide gels (15 μg protein/lane) and electrotransferred to 0.45 μm Hybond ECL nitrocellulose membranes (Amersham Life Sciences) using the wet transblot method in transfer buffer (0.025 M Tris, 0.192 M glycine, 2.6 mM SDS, and 20%[vol/vol] methanol; pH 8.8) at 100 volts for 1 hour. […] Immunoblots were rinsed again as above and detected via an enhanced chemiluminescence method (ECL Western blotting detection system, Amersham Life Science, Buckinghamshire, England). […]

SMILES: CCN(CC)C(=S)SSC(=S)N(CC)CC [Disulfiram, tetraethylthiuram disulfide]
- DNA binding of NF-κB (NF-κB): inhibited
- generation of reactive oxygen species (dichlorofluorescein fluorescence vs baseline) (M1619 cells; 1.25 μM disulfiram and 0.2 to 1.6 μM CuSO4): not increased
- generation of reactive oxygen species (dichlorofluorescein fluorescence vs baseline) (M1619 cells; disulfiram 0.625 to 5 μM): not increased
- DNA binding of AP-1 (AP-1): inhibited
- expression of p21WAF1/CIP1 (p21WAF1/CIP1): no consistent effect
